The source of these data is patent publication US20070212716A1, “Nezara viridula Ecdysone Receptor” (Commonwealth Scientific & Industrial Research Org., priority 2006, published 2007).

The target of one experiment is NvEcR10DEF-NvUSPDEF (Nezara viridula, UniProt E5L6Y1). In words: Competition binding with [3H]ponasterone A, NvEcR10DEF-NvUSPDEF. The conditions noted are these: for Ki: calculated from IC50 with the Cheng-Prusoff equation; for IC50: competition with 1.3 nM bindable [3H]ponasterone A. On the procedure: (§1) Ligand binding was measured by a [^3H]ponasterone A binding assay which involved trapping of [^3H]ponasterone A-receptor protein complex on glass fibre discs and washing away unbound steroid before scintillation counting in a Packard Tri-carb scintillation analyser. All such assays, unless otherwise stated, were conducted at the same concentration of bindable [^3H]ponasterone A (2.2 nM, after correcting for the fraction of radioactive material that could never be bound no matter how much receptor was added). Binding by the receptor was expressed in terms of arbitrary units (U) that, in the linear range of the assay (i.e. up to 30 000 cpm bound per filter), were directly proportional to filter-bound cpm. Historically, IU was defined as the amount of [^3H]ponasterone A binding conveyed by a fixed volume of a specific receptor preparation. Differences in the assay over time were corrected for empirically by re-assaying the reference receptor preparation with each new batch of [^3H]ponasterone A and calculating a batch-specific adjustment that was incorporated into the numerical factor used to convert filter-bound cpm into ligand binding units. On average, 1 pmol of receptor-bound [^3H]ponasterone A corresponds to approximately 15.2 U. Specific activity values (U/μg protein) can be calculated for different preparations of purified receptor and these reflect the purity of the preparation, the proportion of receptor that is functional, and the Kd value for that particular receptor.
(§2) Increasing concentrations of, ponasterone A, muristerone A, 20-hydroxyecdysone, inokosterone, and α-ecdysone (2β, 3β, 14α,22R, 25-pentahydroxy-5β-cholest-7-ene-6-one) were used to study the ability to compete with a 1.3 nM bindable concentration of [^3H] ponasterone A for binding to the Nv recombinant heterodimers NvEcR10DEF−NvUSPDEF and NvEcR11DEF−NvUSPDEF. IC50 values were obtained from smooth curves drawn through the data points (see FIG. 6), and from these Ki values were calculated using the Cheng-Prusoff equation (Cheng et at, 1973).

A further experiment deals with NvEcR11DEF-NvUSPDEF (Nezara viridula, UniProt E5L6Y2). In words: Competition binding with [3H]ponasterone A, NvEcR11DEF-NvUSPDEF. The conditions noted are these: for Ki: calculated from IC50 with the Cheng-Prusoff equation; for IC50: competition with 1.3 nM bindable [3H]ponasterone A. As for the experimental part:
as §1, §2

Experiment [1] concerns NvEcR10DEF-NvUSPDEF recombinant ecdysone receptor ligand binding region heterodimer. The experiment is described as follows: [3H]ponasterone A filter binding assay / equilibrium binding, NvEcR10DEF-NvUSPDEF. Also on record: species or system Nezara viridula. As for the experimental part: (§3) Ponasterone A binding data used in Kd determination for the purified recombinant heterodimers NvEcR10DEF−NvUSPDEF and NvEcR11DEF−NvUSPDEF (Kd curves). Rt=concentration of active receptor. L=free [^3H] Ponasterone A. All values in tables are given in pM.
as §1, with “Historically, IU was defined as the amount of [^3H]ponasterone A binding conveyed by a fixed volume of a specific receptor preparation. Differences in the assay over time were corrected for empirically by re-assaying the reference receptor preparation with each new batch of [^3H]ponasterone A and calculating a batch-specific adjustment that was incorporated into the numerical factor used to convert filter-bound cpm into ligand binding units.” left out, “receptor. […]” for “receptor.”

The test system of experiment [2] is NvEcR11DEF-NvUSPDEF recombinant ecdysone receptor ligand binding region heterodimer. The experiment is described as follows: [3H]ponasterone A filter binding assay / equilibrium binding, NvEcR11DEF-NvUSPDEF. Also on record: species or system Nezara viridula. As for the experimental part: as §3
as §1, with “Historically, IU was defined as the amount of [^3H]ponasterone A binding conveyed by a fixed volume of a specific receptor preparation. Differences in the assay over time were corrected for empirically by re-assaying the reference receptor preparation with each new batch of [^3H]ponasterone A and calculating a batch-specific adjustment that was incorporated into the numerical factor used to convert filter-bound cpm into ligand binding units.” left out, “receptor. […]” for “receptor.”

Experiment [3] concerns the target ecdysone receptor recombinant ligand binding domains (DEF regions) heterodimer. The experiment is described as follows: [3H]ponasterone A binding, Lucilia cuprina recombinant ligand binding region heterodimer. The conditions noted are these: IMAC-purified Lucilia cuprina heterodimer; previously studied by this group. As for the experimental part:
as §1, with “Differences in the assay over time were corrected for empirically by re-assaying the reference receptor preparation with each new batch of [^3H]ponasterone A and calculating a batch-specific adjustment that was incorporated into the numerical factor used to convert filter-bound cpm into ligand binding units.” left out

Experiment [4] has the same target. In words: [3H]ponasterone A binding, Myzus persicae recombinant ligand binding region heterodimer. The conditions noted are these: IMAC-purified Myzus persicae heterodimer; previously studied by this group. On the procedure: as §1, with “Differences in the assay over time were corrected for empirically by re-assaying the reference receptor preparation with each new batch of [^3H]ponasterone A and calculating a batch-specific adjustment that was incorporated into the numerical factor used to convert filter-bound cpm into ligand binding units.” left out, “receptor. […]” for “receptor.”

For experiment [5] the target is unchanged. In words: [3H]ponasterone A binding, Bemisia tabaci recombinant ligand binding region heterodimer. The conditions noted are these: IMAC-purified Bemisia tabaci heterodimer; previously studied by this group. As for the experimental part:
as §1, with “Differences in the assay over time were corrected for empirically by re-assaying the reference receptor preparation with each new batch of [^3H]ponasterone A and calculating a batch-specific adjustment that was incorporated into the numerical factor used to convert filter-bound cpm into ligand binding units.” left out, “receptor. […]” for “receptor.”

For experiment [6] the target is unchanged. In words: [3H]ponasterone A binding, Helicoverpa armigera recombinant ligand binding region heterodimer. The conditions noted are these: IMAC-purified Helicoverpa armigera heterodimer; previously studied by this group. On the procedure:
as §1, with “Differences in the assay over time were corrected for empirically by re-assaying the reference receptor preparation with each new batch of [^3H]ponasterone A and calculating a batch-specific adjustment that was incorporated into the numerical factor used to convert filter-bound cpm into ligand binding units.” left out, “receptor. […]” for “receptor.”

In experiment [7] the target is T1, FLAG-tagged NvUSPDEF (DEF domains / ligand binding region of Nezara viridula ultraspiracle protein) (Nezara viridula).
T1 construct: Co-expressed with His6-EcRDEF (isoform 10 or 11) in Sf9 cells; also called FLAG USPDEF; FLAG USPDEF5.1
T1 chain: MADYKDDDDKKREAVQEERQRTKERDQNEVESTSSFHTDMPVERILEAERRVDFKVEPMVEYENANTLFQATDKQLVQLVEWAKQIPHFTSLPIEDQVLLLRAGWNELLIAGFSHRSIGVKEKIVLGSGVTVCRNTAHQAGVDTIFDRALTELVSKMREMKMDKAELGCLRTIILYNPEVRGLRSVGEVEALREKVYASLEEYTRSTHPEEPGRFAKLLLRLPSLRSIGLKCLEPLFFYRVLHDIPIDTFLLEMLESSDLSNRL
In words: IMAC co-purification of the heterodimer through the His6 tag on EcRDEF, from Sf9 cell extracts.

Consider `CC(C)CC[C@@H](O)[C@](C)(O)[C@H]1CC[C@@]2(O)C3=CC(=O)[C@@H]4C[C@@H](O)[C@@H](O)C[C@]4(C)[C@H]3CC[C@]12C` [Ponasterone A], for which, on NvEcR10DEF-NvUSPDEF, the inhibition constant Ki (commonly the dissociation constant of the complex between target and ligand, obtained from inhibition or displacement) was 0.2 µM; the IC50 (commonly the concentration that gives 50% inhibition) is 0.26 µM. Also, at NvEcR11DEF-NvUSPDEF, the Ki is 0.2 µM and the IC50 stood at 0.28 µM.
In the case of `CC(C)CC[C@@H](O)[C@](C)(O)[C@H]1CC[C@@]2(O)C3=CC(=O)[C@]4(O)C[C@@H](O)[C@@H](O)C[C@]4(C)[C@H]3[C@H](O)C[C@]12C` [Muristerone A], the Ki at NvEcR10DEF-NvUSPDEF and on NvEcR11DEF-NvUSPDEF was 0.1 µM each time. The IC50 on NvEcR10DEF-NvUSPDEF and at NvEcR11DEF-NvUSPDEF was 0.12 µM throughout.
As to `CC(CO)CC[C@@H](O)[C@](C)(O)[C@H]1CC[C@@]2(O)C3=CC(=O)[C@@H]4C[C@@H](O)[C@@H](O)C[C@]4(C)[C@H]3CC[C@]12C` (stereo partly drawn) [Inokosterone], on NvEcR10DEF-NvUSPDEF, the Ki was 6.3 µM and the IC50 stood at 7.5 µM. At NvEcR11DEF-NvUSPDEF, the Ki is 6.8 µM and the IC50 is 8 µM.
Turning to [^3H]ponasterone A, the “Specific activity ([3H]ponasterone A binding units per μg protein)” value in experiment [1] (IMAC-purified NvEcR10DEF-NvUSPDEF, 2.2 nM bindable [3H]ponasterone A) is reported as 5.0 U/μg; in [2] (IMAC-purified NvEcR11DEF-NvUSPDEF, 2.2 nM bindable [3H]ponasterone A), 7.3 U/μg; in experiment [3], 15.4-24.3 U/μg; in experiment [4], 17.3-18.8 U/μg; in experiment [5] it was 11.3 U/μg. For the same molecule, the Kd (usually the concentration at which binding is half-saturated) is 6.8 ± 0.8 nM in experiment [1] (equilibrium binding of [3H]ponasterone A to IMAC-purified NvEcR10DEF-NvUSPDEF); 7.5 ± 0.8 nM in [2] (equilibrium binding of [3H]ponasterone A to IMAC-purified NvEcR11DEF-NvUSPDEF); 1 ± 0.1 nM in experiment [3]; 0.7 ± 0.1 nM in experiment [4]; 1.2 ± 0.2 nM in experiment [5]; 2.5 ± 0.1 nM in [6].
Turning to `CC(C(O)CCC(C)(C)O)C1CCC2(O)C3=CC(=O)C4CC(O)C(O)CC4(C)C3CCC12C` [α-Ecdysone, 2β, 3β, 14α,22R, 25-pentahydroxy-5β-cholest-7-ene-6-one], on NvEcR10DEF-NvUSPDEF, the inhibition constant Ki is 46.2 µM and the IC50 is 55 µM. For the same molecule, on NvEcR11DEF-NvUSPDEF, the Ki is 45.2 µM and the IC50 was found to be 53 µM.
For “2β, 3β, 14α, 20R,22R,25-hexahydroxy-5β-cholest-7-′ene-6-one [20-hydroxyecdysone]”, on NvEcR10DEF-NvUSPDEF, the Ki was 3.6 µM and the IC50 was determined as 4 µM. For the same molecule, on NvEcR11DEF-NvUSPDEF, the Ki is 3.8 µM and the IC50 was 4.5 µM.

B1: (His)6-tagged NvEcR11DEF (DEF domains / ligand binding region of Nezara viridula ecdysone receptor protein isoform NvEcR11) (receptor)
chain: MGMRGSHHHHHHRPECVVPEYQCAVKRKEKKAQKDKDKPVSTTNGSPESIKVEEPHRVVYKTEGETLGRPVPINGVKPVSPEQEELIHRLVYFQNEYEHPSEEDLRRINTPNEDEEQSDQRFRHLTEITILTVQLIVEFAKRLPGFDKLLREDQIALLKACSSEVMMLRMARKYDATTDSILFANNQPYNRESYSLAGMGDVIEDLLRFCRHMFNMKVDNAEYALLTAIVIFSERPALIEGWKVEKIQEIYLEALKSYVDNRSRPRSPTIFAKLLSVLTELRTLGNQNSEMCFSLKLQNKKLPPFLAEIWDVNT
notes: Co-expressed with FLAG-NvUSPDEF in Sf9 cells from one baculovirus; also called His6EcRDEF11.1; EcRDEF
Regarding B1, the binding result in experiment [7] is listed as “binds”.

B2: (His)6-tagged NvEcR10DEF (DEF domains / ligand binding region of Nezara viridula ecdysone receptor protein isoform NvEcR10) (receptor)
chain: MGMRGSHHHHHHRPECVVPEYQCAVKRKEKKAQKDKDKPVSTTNGSPESIKVEEPHRVVYKTEGETLGRPVPINGVKPVSPEQEELIHRLVYFQNEYEHPSEEDLRRIVSNTPNEDEEQSDQRFRHLTEITILTVQLIVEFAKRLPGFDKLLREDQIALLKACSSEVMMLRMARKYDATTDSILFANNQPYNRESYSLAGMGDVIEDLLRFCRHMFNMKVDNAEYALLTAIVIFSERPALIEGWKVEKIQEIYLEALKSYVDNRSRPRSPTIFAKLLSVLTELRTLGNQNSEMCFSLKLQNKKLPPFLAEIWDVNT
notes: Co-expressed with FLAG-NvUSPDEF in Sf9 cells from one baculovirus; also called His6EcRDEF10.1; EcRDEF
Turning to B2, the binding result in experiment [7] is “binds”.
